Laboratory results reported in article doi:10.1101/2025.05.21.655333v1, “Role of glutamate 292 and lysine 331 in catalysis for the flavoenzyme (S)-6-hydroxynicotine oxidase from Shinella sp. HZN7” (biorxiv, 2025).

Molecular target: T1, NctB (Shinella sp. HZN7, UniProt A0A075BSX9)
T1 construct: synthetic gene in pET29b (NdeI/XhoI), C-terminal His tag, expressed in E. coli BL21(DE3); FAD-containing flavoenzyme
Test: absorbance spectra before and after SDS/heat release of FAD
Type: binding
Details: pH 7.5; prosthetic group co-purified with the enzyme

T1 sequence (A0A075BSX9 whole entry): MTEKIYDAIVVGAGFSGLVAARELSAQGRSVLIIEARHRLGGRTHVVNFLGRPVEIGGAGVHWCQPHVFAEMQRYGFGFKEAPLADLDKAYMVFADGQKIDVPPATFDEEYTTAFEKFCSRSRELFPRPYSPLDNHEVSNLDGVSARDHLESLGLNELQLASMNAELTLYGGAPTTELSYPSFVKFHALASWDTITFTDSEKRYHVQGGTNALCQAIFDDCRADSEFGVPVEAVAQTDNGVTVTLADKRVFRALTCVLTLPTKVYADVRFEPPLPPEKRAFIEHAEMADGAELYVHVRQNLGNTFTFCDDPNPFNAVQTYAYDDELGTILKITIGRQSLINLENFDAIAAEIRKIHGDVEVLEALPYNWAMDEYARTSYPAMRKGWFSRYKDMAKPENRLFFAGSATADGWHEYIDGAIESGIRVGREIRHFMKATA

## Cc1cc2nc3c(=O)[nH]c(=O)nc-3n(C[C@H](O)[C@H](O)[C@H](O)COP(=O)(O)OP(=O)(O)OC[C@H]3O[C@@H](n4cnc5c(N)ncnc54)[C@H](O)[C@@H]3O)c2cc1C [flavin adenine dinucleotide]
  absorbance spectra before and after SDS/heat release of FAD: The extinction coefficient of FAD bound to NctB was then calculated
